Test results taken from patent US7763626B2, “Compositions and method for enhancing the therapeutic activity of opiods in treatment of pain” (Trustees of Dartmouth College, priority 2004, dated 2010).

Columns and labels:
GLAST protein = experiment: Western blot analysis of ipsilateral lumbar spinal cord; assay type: in vivo, rat; settings: day 4
Procedure: (§1) Experiments were performed to determine how propentofylline-induced suppression of glial activation contribute to reduced behavioral hypersensitivity after nerve injury. In a preventative paradigm, 10 μg of propentofylline (Sigma) to male Sprague-Dawley rats in 40 μl of sterile saline, or saline vehicle alone was administered intrathecally (i.t.) by lumbar puncture at the L4/5 level under brief halothane anesthesia (n=6-8/group). Treatment began one hour prior to L5 spinal nerve transection and continued daily in the evening until day 4 or 12 post-transection. Rats received either an L5 spinal nerve transection or sham surgery on day 0. The development of mechanical allodynia was monitored as described above in the morning at approximately 15 hours post-propentofylline or saline injection. Rats were euthanized on day 4 or 12 post-transection and tissue was further processed by real time RT-PCR, Western blot, or immunohistochemistry for determination of levels and rate of synthesis of the glutamate transporters GLT-1 and GLAST.
(§2) Tissue was collected from 4-5 rats/group on postoperative days 4 or 12. […]
(§3) Protein obtained from L5 lumbar spinal cord was quantified using the Lowry method (DC assay, Bio-Rad, Richmond, Calif.). […]

GLT-1 protein = experiment: as above; assay type: in vivo, rat; settings: day 12
Procedure: as §1, §2, §3

With `CCCn1cnc2c1c(=O)n(CCCCC(C)=O)c(=O)n2C` [propentofylline] the “GLAST protein compared with saline-treated injured rats” value (GLAST protein) was “significant decrease” and the “GLT-1 protein compared with L5 spinal nerve transection alone” value (GLT-1 protein) was “significantly elevated”.
